From patent publication US8987309B2, “Compounds, pharmaceutical compositions and methods of use of 2-aryl pyridylazoles” (The Translational Genomics Research Institute, priority 2009, dated 2015)
Entries after “also recorded” stand apart in the source; their conditions may differ.

What was measured:
SK-OV-3 = assay: IC50 in tumor cell lines (SK-OV-3); type: cell-based; details: Table 2; ovarian tumor cell line SK-OV-3
Experimental: (§1) Cytotoxicity Assays. Cytotoxicity assays in the mechanism of action studies were performed according to Mosmann (1983), wherein the activity of mitochondrial reductases were measured using 3-(4,5-dimethylthiozol-3-yl)-2,5-diphenyltetrozolium bromide dye. In brief, cells were seeded in 96-well plates and incubated for various times at 37° C. Inhibition of cell growth was measured by adding 3-(4,5-dimethylthiozol-3-yl)-2,5-diphenyltetrozolium bromide dye, and after an additional 4 h of incubation at 37° C., the 96-well plates were centrifuged, and the culture supernatant was removed. DMSO was added to each well to solubilize the formazan crystals, and the optical density was read at 540 nm on a Quant Spectrophotometer (BioTek Instruments, Winooski, Vt.). Cell growth inhibition data are expressed as percentage of survival compared with untreated cells. The IC50 is defined as the drug concentration required to produce 50% growth inhibition. Results are mean S.E.M. (n 3).

TrkB = TrkB (Homo sapiens, UniProt Q16620); assay: Follow-up kinase screening and IC50 (SignalChem), TrkB; type: biochemical; design: assay run by SignalChem Pharmaceuticals, Inc. (Richmond, BC, Canada)
[1] = Plasma protein binding (rapid equilibrium dialysis), mouse plasma; type: in vitro ADME; details: plasma concentration of 3.27 μM
Experimental: (§2) Plasma Protein Binding. Plasma protein binding of DPC-046 was determined in human and mouse plasma using rapid equilibrium dialysis (RED) devices manufactured by Thermo Fisher Scientific. Plasma pH was adjusted to 7.4 and spiked with DPC-046 to a final plasma concentration of 1 μg/ml. Aliquots (500 μl) of the spiked plasma were placed into the sample chamber, and 750 μl of phosphate-buffered saline were placed into the adjacent chamber. Triplicate samples were loaded into the RED devices. The RED devices were incubated at 37° C. on an orbital shaker operating at 100 rpm for 24 h. […] After the incubation, aliquots of plasma and buffer were removed for the analysis of DPC-046 concentration by LC-MS-MS as described above.

MDA231 = assay: IC50 in tumor cell lines (MDA231); type: cell-based; details: Table 2; breast tumor cell line MDA231
Experimental: as §1

BxPC3 DPC-4(−/−) cells = assay: Measurement of cell cycle (PI flow cytometry); type: cell-based, Human; details: 24 to 72 h
Experimental: Measurement of Cell Cycle. The percentage of cells in different cell cycle phases of division was measured by flow cytometry (Darzynkiewicz et al., 1996) using propidium iodide (PI) (Sigma-Aldrich). In brief, cells were treated with PC-046 for 24 to 72 h, fixed with 70% ethanol overnight, and then stained with 40 µg/ml PI and 0.5 mg/ml RNase A for 30 min at 37° C. PI fluorescence was measured on a FACScan (BD Biosciences, San Jose, Calif.) and analyzed using Mod-Fit (Verify Software, Topsham, Me.). Data are mean S.E.M. (n 3).
(§3) Mean±S.E.M., n=3. […] Mean±S.E.M., n=3. […] Mean tumor burden is shown.

[2] = Plasma protein binding (rapid equilibrium dialysis), human plasma; type: in vitro ADME; details: plasma concentration of 3.27 μM
Experimental: as §2

DU145 = assay: IC50 in tumor cell lines (DU145); type: cell-based; details: Table 1; prostate tumor cell line DU145
Experimental: as §1

[3] = tested on: BxPC3 DPC-4(+/+) and BxPC3 DPC-4(−/−) cells; assay: Cytotoxicity (96-h MTT) in isogenic BxPC3 cell lines; type: cell-based, Human; details: BxPC3 cell lines
Experimental: Cell lines and Culture Conditions. Human pancreatic cancer cell lines MiaPaCa-2 (Yunis et al., 1977), Panc-1 (Lieber et al., 1975), and BxPC3 (Tan et al., 1986) were purchased from the American Type Culture Collection (Manassas, Va.) and cultured in a humidified incubator at 37° C., 5% CO2, in RPMI 1640 medium (CellGro, Manassas, Va.) supplemented with 10% heat-inactivated bovine calf serum, 2 mM L-glutamine, 100 U/ml penicillin, and 100 µg/ml streptomycin (Invitrogen, Carlsbad, Calif.). MiaPaCa-2 (CRL-1420) is an adherent epithelial human pancreatic cancer cell line with a doubling time of approximately 40 h (Yunis et al., 1977). Panc-1 (CRL-1469) is an undifferentiated human pancreatic epithelial cell line with a doubling time of approximately 52 h (Lieber et al., 1975). The BxPC3 cell line DPC-4(−/−) and its isogenic restored wild-type DPC-4(+/+) cell line were developed and cultured as described previously (Wang et al., 2006). In brief, a DPC-4-expressing construct (pMSCVneoDPC-4) was created by amplifying full-length cDNA of DPC-4 using reverse transcriptase-PCR and subcloning into the multiple cloning site of a retroviral vector (pMSCVneo). The DPC-4-expressing construct was cotransfected into the BxPC3 DPC-4(−/−) cells using a packaging cell line, resulting in a cell line that constitutively expresses DPC-4. The expression of DPC-4 was confirmed by Western blotting (Wang et al., 2006).
as §1, §3

A549 = assay: IC50 in tumor cell lines (A549); type: cell-based; details: lung tumor cell line A549
Experimental: as §1

PDGFRα = biological target: T1, PDGFRα (Homo sapiens, UniProt P16234); assay: Initial kinase screening (Amphora), PDGFRα; type: biochemical; details: 10 μM compound
T1 construct: assay run by Amphora Discovery Corporation (Durham, N.C.)
Experimental: Kinase Screening. Initial kinase screening was performed by Amphora Discovery Corporation (Durham, N.C.).

H460 = assay: IC50 in tumor cell lines (H460); type: cell-based; details: lung tumor cell line H460
Experimental: as §1

Chain of TrkB (Q16620 32-822): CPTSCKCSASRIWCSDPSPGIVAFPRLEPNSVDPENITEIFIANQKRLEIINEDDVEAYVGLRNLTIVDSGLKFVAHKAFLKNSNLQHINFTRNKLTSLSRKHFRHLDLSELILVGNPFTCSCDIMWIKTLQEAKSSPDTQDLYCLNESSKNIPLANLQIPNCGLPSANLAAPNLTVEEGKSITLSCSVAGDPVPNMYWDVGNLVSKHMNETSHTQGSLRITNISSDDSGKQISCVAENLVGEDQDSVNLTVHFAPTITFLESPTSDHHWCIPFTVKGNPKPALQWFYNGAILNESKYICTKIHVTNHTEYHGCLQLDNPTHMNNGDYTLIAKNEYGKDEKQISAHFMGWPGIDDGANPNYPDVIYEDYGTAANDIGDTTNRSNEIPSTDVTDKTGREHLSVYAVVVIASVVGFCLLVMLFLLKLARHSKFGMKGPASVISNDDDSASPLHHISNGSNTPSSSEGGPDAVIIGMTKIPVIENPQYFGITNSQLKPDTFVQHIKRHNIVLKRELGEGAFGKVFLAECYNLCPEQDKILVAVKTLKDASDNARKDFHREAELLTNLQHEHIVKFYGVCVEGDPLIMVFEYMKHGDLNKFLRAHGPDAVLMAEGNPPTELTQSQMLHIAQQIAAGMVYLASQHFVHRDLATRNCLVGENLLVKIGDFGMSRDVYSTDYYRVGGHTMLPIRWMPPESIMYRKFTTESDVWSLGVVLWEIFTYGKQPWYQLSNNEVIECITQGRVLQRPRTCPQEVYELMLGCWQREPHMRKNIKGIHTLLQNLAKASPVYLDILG
T1 sequence (P16234 24-1089, species assumed): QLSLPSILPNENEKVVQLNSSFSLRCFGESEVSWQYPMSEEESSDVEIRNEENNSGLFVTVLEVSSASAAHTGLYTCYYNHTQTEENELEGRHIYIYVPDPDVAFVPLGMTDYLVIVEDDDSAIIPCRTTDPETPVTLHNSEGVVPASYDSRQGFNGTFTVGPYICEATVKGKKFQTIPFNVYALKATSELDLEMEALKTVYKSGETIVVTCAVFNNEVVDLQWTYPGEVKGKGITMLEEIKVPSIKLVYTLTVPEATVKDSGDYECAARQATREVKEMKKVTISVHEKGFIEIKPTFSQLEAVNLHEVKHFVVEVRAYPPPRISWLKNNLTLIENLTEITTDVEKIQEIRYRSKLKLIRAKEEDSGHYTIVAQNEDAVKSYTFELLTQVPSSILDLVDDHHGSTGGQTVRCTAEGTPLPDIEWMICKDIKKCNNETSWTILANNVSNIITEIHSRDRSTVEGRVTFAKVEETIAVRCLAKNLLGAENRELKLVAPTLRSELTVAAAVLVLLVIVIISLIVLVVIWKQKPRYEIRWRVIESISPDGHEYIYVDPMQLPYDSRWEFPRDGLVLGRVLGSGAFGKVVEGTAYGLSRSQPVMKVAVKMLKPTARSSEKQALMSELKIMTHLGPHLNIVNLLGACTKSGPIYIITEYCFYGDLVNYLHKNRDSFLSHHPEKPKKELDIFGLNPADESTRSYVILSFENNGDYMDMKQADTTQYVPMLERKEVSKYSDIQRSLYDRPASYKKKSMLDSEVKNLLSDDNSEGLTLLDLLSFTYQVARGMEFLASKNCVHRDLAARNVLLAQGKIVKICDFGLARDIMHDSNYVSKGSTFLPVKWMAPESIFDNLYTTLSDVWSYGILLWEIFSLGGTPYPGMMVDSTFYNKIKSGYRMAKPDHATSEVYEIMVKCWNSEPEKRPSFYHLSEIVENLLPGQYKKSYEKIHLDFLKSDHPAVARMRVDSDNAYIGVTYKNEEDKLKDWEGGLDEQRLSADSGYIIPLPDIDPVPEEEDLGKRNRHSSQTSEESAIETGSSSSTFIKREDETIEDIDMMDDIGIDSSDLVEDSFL

## COc1ccc(-c2cnc(-c3ccncc3-c3cccc(OC)c3)o2)cc1 [DPC046]
SK-OV-3
  IC50: 17 nM
TrkB; 25 μM DPC-046, follow-up screen
  inhibition of TrkB: more than 70%
TrkB; highest concentration tested (50 μM)
  inhibition of TrkB: 98%
[1]
  bound to plasma proteins: 91%
MDA231
  IC50: 17 nM
BxPC3 DPC-4(−/−) cells; listed as (D)PC-046
  effect on cell cycle phases (in words): block in the S and G2/M-phases
BxPC3 DPC-4(−/−) cells; listed as DPC-046
  effect on cell cycle phases (in words): reduction in the percentage of G0/G1-phase cells and a commensurate increase in G2/M-phase cells
[2]
  bound to plasma proteins: 85%
DU145
  IC50: 27 nM
[3]; listed as DPC-046
  potency against BxPC3 cell lines (in words): most potent; also recorded: greatest cytotoxicity
[3]; listed as PC-046
  potency against BxPC3 cell lines (in words): high potency
A549; Table 1
  IC50: 22 nM
A549; Table 2
  IC50: 22 nM
PDGFRα
  inhibition of PDGFRα: 46%
H460; Table 1
  IC50: 25 nM
H460; Table 2
  IC50: 25 nM
